Measured values taken from PMC9658586, “1,4-Naphthoquinone Motif in the Synthesis of New Thiopyrano[2,3-d]thiazoles as Potential Biologically Active Compounds” (Molecules, 2022).

Tests used:
[1] = system: human epidermoid cervix carcinoma KB3-1 cells; test: MTT cell viability assay, KB3-1; assay type: cell-based; conditions: Homo sapiens, KB 3-1, 72 h
Description: (§1) The MTT cell viability assay was performed 72 h after cells treatment with various concentrations of studied compounds and doxorubicin, a reference drug. […] It is known that ABCB1 (P-glycoprotein), MRP1/ABCC1 (multidrug resistance protein 1), and BCRP/BCG2 (breast cancer resistance protein) have been reported to be key players in resistance to chemotherapy. […] The p53 has diverse mutations in almost all human tumors, stimulating their hyper-proliferation, invasion/metastasis, and thus, influencing the potency of various chemotherapeutics (i.e., platins and anti-metabolites).
(§2) Human colon carcinoma HCT116 cells, human breast adenocarcinoma cells of MCF-7 line, human T-leukemia Jurkat cells, human chronic myelogenous leukemia K562 cells, and human keratinocytes of HaCaT line were from the Cell Collection of R.E. Kavetsky Institute of Experimental Pathology, Oncology and Radiobiology (Kyiv, Ukraine). Murine macrophages of J774.2 line were a generous gift from Professor Sir John Vane (William Harvey Research Institute, London, UK) via Professor Janusz Marcinkiewicz (Jagiellonian University Medical College, Krakow, Poland). Human colon carcinoma HCT116 p53-/- cells with knockdown of P53 gene, as well as human epidermoid cervix carcinoma KB3-1 cells and its ABCB1-overexpressing subline KBC-1, were kindly provided by Professor W. Berger (Institute of Cancer Research, Medical University of Vienna, Austria). […] Human leukemia monocytic THP-1 cells were kindly provided by Professor M. Herrmann (Department of Internal Medicine, Institute for Clinical Immunology and Rheumatology, University of Erlangen-Nuremberg, Germany). Cells were cultured in DMEM or RPMI-1640 medium supplemented with 10% fetal bovine serum (all were purchased from Biowest, Nuaille, France) at 37 °C in a humidified atmosphere containing 5% CO2.
(§3) MTT assay was used to examine the viability of tumor and pseudo-normal cells after their treatment with studied thiopyrano[2,3-d]thiazole derivatives and doxorubicin (Actavis S.R.L., Bucharest, Romania). Cells were seeded in 96-well plates at a density of 3–5 × 103. After 24 h, cells were treated with compound […], 1,4-NQ (0.1–100 µM), and doxorubicin (0.1–100 µM). After incubation for 72 h, MTT reagent (Sigma-Aldrich, St. Louis, MO, USA) was added to each well, according to the Sigma-Aldrich protocol. An absorbance Reader BioTek ELx800 (BioTek Instruments, Inc., Winooski, VT, USA) was used to measure the reaction product.

[2] = system: Human colon carcinoma HCT116 cells (HCT116wt); test: MTT cell viability assay, HCT116wt; assay type: cell-based; conditions: Homo sapiens, HCT-116, 72 h
Description: as §1, §2, §3

[3] = system: panel of sixty cancer cell lines; test: NCI single-dose (10 μM) anticancer screen, sulforhodamine B, 60-cell-line panel; assay type: cell-based, human; conditions: 48 h; for Mean Growth, %: growth percent vs untreated control, 60 cell lines; for Range of Growth, %: range over 60 cell lines
Description: Considering the results of previous studies of fused thiazolidinones and their analogs, a series of thiopyrano[2,3-d]thiazoles with naphthoquinone fragments in the structure were studied for their anticancer activity. Thus, synthesized thiopyranothiazole derivatives 3.5 and 3.6 were selected by the National Cancer Institute (NCI), U.S., for their anticancer activity at 10 μM concentration toward a panel of sixty cancer cell lines representing nine different types (leukemia, melanoma, lung, colon, CNS, ovarian, renal, prostate, and breast cancers) (Figures S13–S14). Selection for screening based on new derivatives’ ability to add diversity to the NCI small molecules collection and anticancer assays were performed according to the NCI guidelines and protocols previously described. The compounds were added at the mentioned concentration, and the cell cultures were incubated for 48 h. The results for each compound were reported as the growth percent (GP%) of treated cells compared with untreated control cells.
Anticancer in vitro assay was performed on the human tumor cell lines panel derived from nine neoplastic diseases by the protocol of the Drug Evaluation Branch, National Cancer Institute, Bethesda, MD, USA [44, 45, 46]. Tested compounds were added to the culture at a single concentration (10^−5 M), and the cultures were incubated for 48 h. Endpoint determinations were made with a protein binding dye, sulforhodamine B. Results for each tested compound were reported as the GP% of the treated cells compared to untreated control cells. GP% was spectrophotometrically evaluated vs. controls not treated with test agents.

[4] = system: human chronic myelogenous leukemia K562 cells; test: MTT cell viability assay, K562; assay type: cell-based; conditions: Homo sapiens, K562, 72 h
Description: as §1, §2, §3

[5] = system: salmon sperm DNA; test: DNA/methyl green colorimetric (replacement) assay; assay type: binding
Description: In addition, we used DNA/methyl green colorimetric assay to study the possible interaction of compound 3.6 in DNA. […] This assay was used to measure the displacement of methyl green from DNA by compounds with the ability to intercalate DNA [54].
The capacity of the tested compounds to intercalate into salmon sperm DNA was determined using the methyl green assay. Briefly, salmon sperm DNA (10 mg/mL) was incubated for 1 h at 37 °C with 15 µL of methyl green solution (1 mg/mL in H2O). The compounds were added at concentrations 1 and 10 µM/mL and incubated at 37 °C in the dark for 2 h. Reduction of the absorbance of methyl green at 642 nm induced by the test compounds was measured with a multiplate reader, Plate Reader BioTek Lx80 ( BioTek Instruments, Inc., Winooski, VT, USA). Doxorubicin, a well-known intercalating agent, was used as a positive control.

[6] = system: human keratinocytes of HaCaT line; test: MTT cell viability assay, HaCaT; assay type: cell-based; conditions: 72 h, pseudo-normal cells
Description: as §1
as §2, with “Cells were cultured in DMEM or RPMI-1640 medium supplemented with 10% fetal bovine serum (all were purchased from Biowest, Nuaille, France) at 37 °C in a humidified atmosphere containing 5% CO2.” left out
(§4) MTT assay was used to examine the viability of tumor and pseudo-normal cells after their treatment with studied thiopyrano[2,3-d]thiazole derivatives and doxorubicin (Actavis S.R.L., Bucharest, Romania). […] An absorbance Reader BioTek ELx800 (BioTek Instruments, Inc., Winooski, VT, USA) was used to measure the reaction product.

[7] = system: Jurkat cells; test: DNA laddering (DNA extraction and gel electrophoresis); assay type: cell-based, human
Description: DNA extraction and gel electrophoresis were performed as described by Herrmann and others. Jurkat cells were collected by centrifugation; lysed in a lysis buffer (1% NP-40 in 20 mM EDTA, 50 mM Tris-HCl, pH 7.5; 10 µL per 10 6 cells, minimum 50 µL). After centrifugation for 5 min at 1600× g, the supernatant was collected and the extraction was repeated with the same amount of lysis buffer. Supernatants were brought to 1% SDS and treated for 2 h with RNase A (final concentration 5 µg/mL) at 56 °C. Then, proteinase K was added (final concentration 2.5, µg/mL) and incubated for 2 h at 37 °C. After adding 1/2 volume of 10 M ammonium acetate, the DNA was precipitated with 2.5 vol. Ethanol, dissolved in gel loading buffer, and separated by electrophoresis in 1% agarose gels containing Ethidium bromide (at 70 V).

[8] = system: KBC-1 (ABCB1-overexpressing subline of KB3-1); test: MTT cell viability assay, KBC-1; assay type: cell-based; conditions: Homo sapiens, 72 h
Description: as §1
as §2, with “Cells were cultured in DMEM or RPMI-1640 medium supplemented with 10% fetal bovine serum (all were purchased from Biowest, Nuaille, France) at 37 °C in a humidified atmosphere containing 5% CO2.” left out
as §4

[9] = system: Murine macrophages of J774.2 line; test: MTT cell viability assay, J774.2; assay type: cell-based; conditions: pseudo-normal murine macrophages
Description: as §1, §2, §3

| Structure (SMILES) | IC50 [1] [µM] | IC50 [2] [µM] | Mean Growth, % [3] [%] | Range of Growth, % [3] [%] | IC50 [4] [µM] | percentage of methyl green replacement ([5]; dependent on concentration (1 and 10 µM)) [%] | IC50 ([6]; Homo sapiens, HaCaT) [µM] | DNA laddering ([7]; 1 µM) | DNA laddering ([7]; 2.5 µM and 5 µM) | DNA laddering ([7]; 10 µM and 25 µM) | IC50 [8] [µM] | IC50 ([9]; Mus musculus, J774.2, 72 h) [µM] | methyl green replacement ([5]; 10 µM, compared with compound 3.6) | IC50 ([6]; listed as Dox) [µM] | DNA laddering ([7]; 0.5 µM) | IC50 ([9]; 72 h, listed as Dox) [µM] |
| --- | --- | --- | --- | --- | --- | --- | --- | --- | --- | --- | --- | --- | --- | --- | --- | --- |
| O=C1C2=C(C(=O)c3ccccc31)C(CCc1ccccc1)c1sc(=O)[nH]c1S2 (stereo not drawn) [Compound 3.6, 11-Phenethyl-3,11-dihydro-2H-benzo[6,7]thiochromeno[2,3-d]thiazole-2,5,10-trione] | 27.7 | 6.37 | 90.58 | 45.25 to 130.11 | 25.7 | 35.00 to 39.64 | > 100 | slight laddering of DNA | necrotic degradation of DNA | extreme DNA fragmentation | 12.8 | 9.57 |  |  |  |  |
| COc1cccc2c1C(=O)c1c(O)c3c(c(O)c1C2=O)C[C@@](O)(C(=O)CO)C[C@@H]3O[C@H]1C[C@H](N)[C@H](O)[C@H](C)O1 [Doxorubicin, doxorubicin, reference compound] | 0.73 | 0.07 | −20.30 | −86.40 to 72.90 | 0.62 |  | 0.8 to 1 |  |  |  | 1.97 | 0.8 to 1 | two times more effective | 0.8 | more necrotic changes in treated Jurkat cells than apoptotic ones | 0.97 |
